What was measured:
salmon sperm DNA = test: Spectroscopic DNA interaction assay (KMnO4 oxidation); assay type: binding; conditions: DNA + compound + KMnO4, time- and concentration-dependent, up to 3 h; binder if >0.05 or <−0.05
Excerpt: The method investigates conformational changes in the DNA; for example, when DNA is exposed to an intercalating, alkylation, or other classes of DNA-binding agents. It is based on the oxidative reaction of potassium permanganate with pyrimidine bases. Compounds that interact with DNA distort its duplex structure, thus exposing pyrimidine bases for oxidation by KMnO4, which generates products that can be detected by spectrophotometry. Different classes of DNA-binding compounds can be studied in such a way. […] Net A405 ranged from 0.00 to 0.50 in the presence of the compound, and Net A405 ranged from 0.02 to 0.045 in the control case (Figure 9).
A spectroscopic DNA interaction study was performed as previously described. salmon sperm DNA (Sigma-Aldrich, USA) was diluted in Milli-Q water at 4 °C for 24 h at 1.65 mg/mL. Tested compounds were dissolved in acetone. After 1 h of incubation of DNA and compound, KMnO4 was added to a final concentration of 0.3 mM and the absorbance at 405 nm was measured (Absorbance Reader BioTek ELx800) (BioTek Instruments, Inc., Winooski, VT, USA) in different periods up to 3 h. Appropriate controls of DNA alone and compound alone were included, and these Abs values were subtracted from the test sample to provide the net change in absorbance (NetAbs). […]

MALME-3M/Melanoma = test: NCI single-dose screen, MALME-3M; assay type: cell-based, human; conditions: 10 μM, 48 h
Procedure: (§1) Considering the results of previous studies of fused thiazolidinones and their analogs, a series of thiopyrano[2,3-d]thiazoles with naphthoquinone fragments in the structure were studied for their anticancer activity. Thus, synthesized thiopyranothiazole derivatives 3.5 and 3.6 were selected by the National Cancer Institute (NCI), U.S., for their anticancer activity at 10 μM concentration toward a panel of sixty cancer cell lines representing nine different types (leukemia, melanoma, lung, colon, CNS, ovarian, renal, prostate, and breast cancers) (Figures S13–S14). Selection for screening based on new derivatives’ ability to add diversity to the NCI small molecules collection and anticancer assays were performed according to the NCI guidelines and protocols previously described. The compounds were added at the mentioned concentration, and the cell cultures were incubated for 48 h. The results for each compound were reported as the growth percent (GP%) of treated cells compared with untreated control cells.
(§2) Anticancer in vitro assay was performed on the human tumor cell lines panel derived from nine neoplastic diseases by the protocol of the Drug Evaluation Branch, National Cancer Institute, Bethesda, MD, USA [44, 45, 46]. […] GP% was spectrophotometrically evaluated vs. controls not treated with test agents.

LOX IMVI/Melanoma = test: NCI single-dose screen, LOX IMVI; assay type: cell-based, human; conditions: 10 μM, 48 h
Procedure: as §1, §2

MCF7/Breast Cancer = test: NCI single-dose screen, MCF7; assay type: cell-based, human; conditions: 10 μM, 48 h
Procedure: as §1, §2

UO-31/Renal Cancer = test: NCI single-dose screen, UO-31; assay type: cell-based, human; conditions: 10 μM, 48 h
Procedure: as §1, §2

SK-MEL-2/Melanoma = test: NCI single-dose screen, SK-MEL-2; assay type: cell-based, human; conditions: 10 μM, 48 h
Procedure: as §1, §2

A498/ Renal Cancer = test: NCI single-dose screen, A498; assay type: cell-based, human; conditions: 10 μM, 48 h
Procedure: as §1, §2

COLO-205/ Colon Cancer = test: NCI single-dose screen, COLO-205; assay type: cell-based, human; conditions: 10 μM, 48 h
Procedure: as §1, §2

[1] = system: SNB-75/ Central Nervous System Cancer; test: NCI single-dose screen, SNB-75; assay type: cell-based, human; conditions: 10 μM, 48 h
Procedure: as §1, §2

SK-MEL-5/Melanoma = test: NCI single-dose screen, SK-MEL-5; assay type: cell-based, human; conditions: 10 μM, 48 h
Procedure: (§3) Selection for screening based on new derivatives’ ability to add diversity to the NCI small molecules collection and anticancer assays were performed according to the NCI guidelines and protocols previously described. The compounds were added at the mentioned concentration, and the cell cultures were incubated for 48 h.
(§4) Anticancer in vitro assay was performed on the human tumor cell lines panel derived from nine neoplastic diseases by the protocol of the Drug Evaluation Branch, National Cancer Institute, Bethesda, MD, USA [44, 45, 46]. Tested compounds were added to the culture at a single concentration (10^−5 M), and the cultures were incubated for 48 h. […] GP% was spectrophotometrically evaluated vs. controls not treated with test agents.

M14/ADR-RES/ Melanoma = test: NCI single-dose screen, M14/ADR-RES; assay type: cell-based, human; conditions: 10 μM, 48 h
Procedure: as §3, §4

O=C1C2=C(C(=O)c3ccccc31)C(CCc1ccccc1)c1sc(=O)[nH]c1S2 (centres unmarked) [Compound 3.6, 11-Phenethyl-3,11-dihydro-2H-benzo[6,7]thiochromeno[2,3-d]thiazole-2,5,10-trione]
Net A405 (net change in absorbance) (salmon sperm DNA): 0.00 to 0.50
Most Sensitive Cell Line Growth, % (MALME-3M/Melanoma) (MALME-3M/Melanoma): 45.25%
Most Sensitive Cell Line Growth, % (LOX IMVI/Melanoma) (LOX IMVI/Melanoma): 57.17%
Most Sensitive Cell Line Growth, % (MCF7/Breast Cancer) (MCF7/Breast Cancer): 58.83%
Most Sensitive Cell Line Growth, % (UO-31/Renal Cancer) (UO-31/Renal Cancer): 51.76%

COc1cccc2c1C(=O)c1c(O)c3c(c(O)c1C2=O)C[C@@](O)(C(=O)CO)C[C@@H]3O[C@H]1C[C@H](N)[C@H](O)[C@H](C)O1 [Doxorubicin, doxorubicin, reference compound]
Most Sensitive Cell Line Growth, % (SK-MEL-2/Melanoma) (SK-MEL-2/Melanoma): −82.60%
Most Sensitive Cell Line Growth, % (A498/ Renal Cancer) (A498/ Renal Cancer): −75.10%
Most Sensitive Cell Line Growth, % (COLO-205/ Colon Cancer) (COLO-205/ Colon Cancer): −81.60%
Most Sensitive Cell Line Growth, % (SNB-75/ Central Nervous System Cancer) [1]: −76.10%
Most Sensitive Cell Line Growth, % (SK-MEL-5/Melanoma) (SK-MEL-5/Melanoma): −86.40%
Most Sensitive Cell Line Growth, % (M14/ADR-RES/ Melanoma) (M14/ADR-RES/ Melanoma): −71.60%

— article PMC9658586, “1,4-Naphthoquinone Motif in the Synthesis of New Thiopyrano[2,3-d]thiazoles as Potential Biologically Active Compounds” (Molecules, 2022)
